Columns and labels:
Format in all cases: biochemical, horseradish
HRP [1] = biological target: T1, HRP (Armoracia rusticana, UniProt P00433); assay: Evaluation of substrates: fluorescence spectra of the product formed by reaction with HRP; details: 0.05 mM substrate, HRP 13.8 fmol
T1 sequence (P00433 31-338): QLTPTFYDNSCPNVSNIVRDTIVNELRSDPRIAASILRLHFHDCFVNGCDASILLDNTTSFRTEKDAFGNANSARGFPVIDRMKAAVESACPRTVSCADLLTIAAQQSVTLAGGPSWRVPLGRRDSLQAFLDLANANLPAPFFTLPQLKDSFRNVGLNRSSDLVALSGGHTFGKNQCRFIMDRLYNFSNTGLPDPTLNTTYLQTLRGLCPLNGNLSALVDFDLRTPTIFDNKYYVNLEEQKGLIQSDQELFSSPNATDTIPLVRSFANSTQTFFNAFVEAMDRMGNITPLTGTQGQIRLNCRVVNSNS
Method: Enhanced reagent formulations containing each of Compounds 1-13 were prepared in either the Basic Formulation or the Acidic Formulation described below.
Fluorescence spectra were obtained on a Jobin Yvon/SPEX FluoroMax-3 spectrofluorometer with the excitation and emission slits set at 1.0 nm bandpass. UV Fluorimeter cuvettes (3.5 mL capacity, Perfector Scientific) were used.
Each of Compounds 1-13 was tested for production of a fluorescent product by reaction with HRP followed by spectrofluorometric analysis. A representative procedure using Compound 1 is described below. Essentially the same procedure was used for the other compounds.
Three mL of a 0.05 mM solution of ethyl N-methylacridan 9-carboxylate (Compound 1) in the acidic formulation were pipetted into a cuvette. Excitation (λem=524 nm) and emission (λex=[…]) spectra were recorded. HRP (13.8 fmol, 4.6×10^−12M) was added and mixed thoroughly. The increase in fluorescence at 524 nm was recorded over 15 min. Excitation (λem=524 nm) and emission (λex=357 nm) spectra were recorded again.

HRP [2] = biological target: T1, HRP; assay: Sequential fluorescence spectra and kinetics of fluorescent product formation with HRP
Text: FIG. 1 is a graph showing a series of sequential fluorescence spectra obtained from a reaction solution containing Compound 10 and HRP. The spectra correspond to the fluorescence of the acridinium product. For comparison, the fluorescence spectrum of an independently prepared sample of N-methylacridinium triflate is shown.
FIG. 2 is a graph showing the time course of the generation of fluorescent product from the reaction described in FIG. 1. The product is monitored by excitation at 357 nm and detecting fluorescence emission at 495 nm.
FIG. 4 is a graph showing the a series of sequential fluorescence spectra obtained from a reaction solution containing compound 12 and HRP. The spectra reveal the formation of the acridinium ester intermediate and N-methylacridone product.
Three mL of a 0.05 mM solution of N-methylacridan in the acidic formulation were pipetted into a cuvette. HRP (13.8 fmol, 4.6×10^−12M) was added and mixed thoroughly. Emission spectra (excitation at 357 nm) were obtained at 4.5 minute intervals over 1.8 h. The emission spectrum (excitation at 357 nm) of a 0.05 mM solution of N-methyl acridinium triflate in the acidic formulation is also shown for comparison with the emission spectra from the N-methylacridan/HRP solution.
FIG. 2 depicts the fluorescence intensity at 495 nm (with excitation at 357 nm) from the reaction solution of Example 16 as a function of time. Fluorescence intensity reached a maximum in 2 h and remained constant.
Three mL of a reagent containing 0.3 mM 2′,3′,6′-trifluorophenyl 10-methylacridan-9-carboxylate (compound 12), 0.1 mM 4-phenylphenol, 0.5 mM urea peroxide, 1 mM EDTA, and 0.025% TWEEN 20 in 0.01 M tris buffer, pH 8.0 were pipetted into a cuvette. HRP (13.8 fmol, 4.6×10^−12M) was added and mixed thoroughly. Emission spectra (excitation at 357 nm) were obtained at 4.5 minute intervals over 1.8 h.

HRP [3] = biological target: T1, HRP; assay: Fluorescence signal/background measurements in the presence of HRP; details: HRP 13.8 fmol, t=15 min vs t=0
Method: Three mL of a solution of each substrate in either the acidic or basic formulation described in Example 12 were pipetted into a cuvette. HRP (13.8 fmol, 4.6×10^−12M) was added and mixed thoroughly. The increase in fluorescence at the maximum was recorded after 15 min for each substrate. Signal-background values were calculated by comparing the fluorescence intensities at t=0 minutes and t=15 minutes.

HRP [4] = biological target: T1, HRP; assay: Fluorescent detection sensitivity of HRP (microtiter plate fluorometer, FIG. 3); details: 0.05 mM substrate in acidic formulation
Method: FIG. 3 is a graph showing the linearity of detection of HRP using fluorogenic substrates performed according to the methods of the present invention. Solutions containing 0.05 mM substrate 1 or 4, 0.1 mM 4-phenylphenol, 0.5 mM urea peroxide, 1 mM EDTA, 0.025% TWEEN 20 in 10 mM acetate buffer, pH 5 and a solution of 0.05 mM substrate 2, 0.1 mM 4-phenylphenol, 0.5 mM urea peroxide, 1 mM EDTA, 0.025% TWEEN 20 in 10 mM in 10 mM tris, pH 8 were reacted with the indicated quantities of HRP. After a reaction period of 15-20 min, fluorescence intensity was measured at the maximum. The term Intensity-Background refers to the fluorescence intensity in relative light units in the presence of HRP corrected for background fluorescence (B) in the absence of HRP. […]
Fluorescence detection limits were obtained on a Labsystems Fluoroskan Ascent microtiter plate fluorometer using an excitation bandpass filter (380 nm) and an emission bandpass filter (465 or 530 nm). […] The strips were then read on the Fluoroskan Ascent with the 380 nm-530 nm filter set.
(§1) HRP was serially diluted in type 1 water and 10 μl of diluted HRP was pipetted into each well. […] The strips were then read on the Fluoroskan Ascent with the 380 nm-465 nm filter set.
as §1

HRP [5] = biological target: T1, HRP; assay: Fluorescent detection of HRP by acridinium ester end product formation; details: for Fluorescence wavelength of the acridinium end product: reaction with HRP, tris pH 8.0
Method: Forty μL of a detection reagent consisting of 0.05 mM compound 14, 0.6 mM urea peroxide, 0.1 mM p-phenylphenol, 0.025% TWEEN 20, 1 mM EDTA in 0.01 M tris buffer, pH 8.0 was reacted with 1 μL of HRP (1.4×10^−16 mol) at room temperature. Acridinium ester end product formation was detected after 5 min and continued to increase over 1 h as detected by spectrophotometry and fluorescence at 500 nm. [drawing 12]

[6] = 0.05 mM substrate, tris pH 8.0, HRP 1.4×10^−16 mol, room temperature

SMILES | Fluorescent properties of acridan substrates (fluorescence emission maximum after reaction with HRP) (HRP [1]; pH 8 basic formulation) [nm] | Fluorescent properties of acridan substrates (fluorescence emission maximum after reaction with HRP) (HRP [1]; pH 5 acidic formulation) [nm] | Fluorescent intensity in the presence of HRP (as S/B) (HRP [3]; pH 5 acidic formulation) | also measured
CN1c2ccccc2Cc2ccccc21 [Compound 10, N-methylacridan] | 490 | – | – | Time at which fluorescence intensity reached a maximum (HRP [2]; 0.05 mM in acidic formulation, HRP 13.8 fmol, emission 495 nm, excitation 357 nm): 2 h; Product of the HRP reaction identified from emission spectra (in words) (HRP [2]; 0.05 mM in acidic formulation, HRP 13.8 fmol, excitation 357 nm, compared with N-methyl acridinium triflate): enzymatic conversion of Compound 10 to the fluorescent acridinium compound
Fc1ccc(N2c3ccccc3Cc3ccccc32)cc1 [Compound 4, N-(4-fluorophenyl)acridan] | 496 | 497 | 3.9 | Fluorescent detection sensitivity of HRP (in words) (HRP [4]): excellent sensitivity
c1ccc(CN2c3ccccc3Cc3ccccc32)cc1 [Compound 5, N-benzylacridan] | 494 | 494 | 5.6 | –
COc1ccc2c(c1)N(c1ccccc1)c1ccccc1C2 [Compound 6] | 511 | 512 | 3.6 | –
COc1ccc2c(c1)N(C)c1c(C)ccc(OC)c1C2C(=O)Oc1c(F)ccc(F)c1F (stereo not shown) [Compound 15, 2,3,6-trifluoro-phenyl 1,6-dimethoxy-4,10-dimethylacridan-9-carboxylate] | – | – | – | Result of the reaction with HRP (in words) (HRP [5]; experiment similar to that with compound 14): fluorescent acridinium end product formation; Fluorescence wavelength of the acridinium end product (HRP [5]): 500 nm
CC1c2ccccc2N(C)c2ccccc21 [Compound 7] | 488 | 490 | 15.8 | –
O=C(O)C1c2ccccc2N(Cc2ccccc2)c2ccccc21 [Compound 8, N-benzyl-acridan-9-carboxylic acid] | 493 | – | – | –
c1ccc(N2c3ccccc3C(C3c4ccccc4N(c4ccccc4)c4ccccc43)c3ccccc32)cc1 [Compound 11] | 494 | 494 | 84.0 | Fluorescent intensity in the presence of HRP (as S/B) (HRP [3]; pH 8 basic formulation): 6.1
CN1c2ccccc2C(C(=O)Oc2c(F)ccc(F)c2F)c2ccccc21 [Compound 12, 2′,3′,6′-trifluorophenyl 10-methylacridan-9-carboxylate, reference compound] | – | – | – | Progression of the HRP reaction from emission spectra (in words) (HRP [2]; 0.3 mM substrate, tris buffer pH 8.0, HRP 13.8 fmol, spectra every 4.5 min over 1.8 h): grow in of acridinium fluorescence and gradual predominance of N-methylacridone fluorescence
COc1ccc2c(c1)N(C)c1cccc(OC)c1C2C(=O)Oc1c(F)ccc(F)c1F (stereo not shown) [Compound 14] | – | – | – | Period over which end product formation continued to increase (HRP [5]; [6]): 1 h; Time after which acridinium ester end product formation was detected (HRP [5]; [6]): 5 min; Fluorescence wavelength of the acridinium end product (HRP [5]): 500 nm
CCOC(=O)C1c2ccccc2N(C)c2ccccc21 [Compound 1, ethyl N-methylacridan 9-carboxylate] | 524 | 524 | 29.5 | Fluorescent intensity in the presence of HRP (as S/B) (HRP [3]; pH 8 basic formulation): 11.0; Fluorescent detection sensitivity of HRP (in words) (HRP [4]): excellent sensitivity
COc1ccc(C2c3ccccc3N(C)c3ccccc32)cc1 [Compound 3] | 484 | 484 | 1.4 | –
CN1c2ccccc2C(C(=O)O)c2ccccc21 [Compound 9] | 489 | – | – | Fluorescent intensity in the presence of HRP (as S/B) (HRP [3]; pH 8 basic formulation): 4.3

— patent US6897036B2, “Fluorescent detection of peroxidase enzymes” (Lumigen, Inc., priority 2002, dated 2005)
